Data from patent US9902725B2, “Heterocyclic derivatives as RORgamma modulators” (GENFIT, priority 2014, dated 2018).

Key:
human RORγt = molecular target: T1, human RORγt (Homo sapiens, UniProt P51449); assay: IL-17 secretion from EL4 murine lymphoma overexpressing human RORγt; assay type: cell-based; set-up: expressed in transfected cells; host or cells: EL-4 murine lymphoma; settings: IL-17 secretion inhibition, PMA and ionomycin stimulation, 24 h
T1 sequence (P51449 1-497 isoform P51449-2): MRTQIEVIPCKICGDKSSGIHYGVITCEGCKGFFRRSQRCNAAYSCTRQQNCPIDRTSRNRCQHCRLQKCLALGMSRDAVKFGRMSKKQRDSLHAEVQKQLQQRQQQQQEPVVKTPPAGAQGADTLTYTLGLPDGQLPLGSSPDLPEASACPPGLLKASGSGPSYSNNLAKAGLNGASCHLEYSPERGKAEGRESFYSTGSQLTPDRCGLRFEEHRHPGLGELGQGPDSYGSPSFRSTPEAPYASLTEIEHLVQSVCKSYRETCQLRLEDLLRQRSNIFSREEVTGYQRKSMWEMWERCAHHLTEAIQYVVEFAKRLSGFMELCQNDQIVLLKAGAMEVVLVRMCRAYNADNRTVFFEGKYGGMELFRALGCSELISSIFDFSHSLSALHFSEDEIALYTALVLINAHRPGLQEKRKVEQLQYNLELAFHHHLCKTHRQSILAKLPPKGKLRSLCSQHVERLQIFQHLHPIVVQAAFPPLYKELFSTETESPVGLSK
Summary of the method: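 EL4 murine lymphoma cells electroporated with hRORγt plasmid, seeded 150000 cells/well, pretreated with compound, then stimulated with PMA (10 ng/mL) and ionomycin (1 μM final) with compound for a further 24 h at 37° C. IL-17 in supernatant measured by HTRF or ELISA.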

[1] = molecular target: T2, RORγt ligand-binding domain (RORγt-LBD) (Homo sapiens, UniProt P51449); assay: Time-resolved FRET (TR-FRET) RORγt coactivator assay; assay type: biochemical; settings: GST-RORγ-LBD, biotinylated RIP140 peptide, coactivator displacement
T2 construct: 20 nM recombinantly expressed RORγ-LBD fused to GST
T2 sequence (P51449 269-508 limits assumed): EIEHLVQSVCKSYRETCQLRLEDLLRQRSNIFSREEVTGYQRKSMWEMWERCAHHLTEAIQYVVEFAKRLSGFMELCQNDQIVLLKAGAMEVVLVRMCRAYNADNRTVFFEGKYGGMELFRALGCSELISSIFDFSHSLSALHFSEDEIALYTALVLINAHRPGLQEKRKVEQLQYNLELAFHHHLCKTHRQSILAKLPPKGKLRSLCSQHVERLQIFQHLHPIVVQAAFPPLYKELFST

[2] = Microsomal stability, human microsomes (CEREP); assay type: in vitro ADME; settings: 0.1 μM, 0.1 mg/mL microsomal protein
Procedure: All the assays were conducted at CEREP (CEREP, France and USA). Metabolic compound stability was tested in human (CEREP, Ref 607) and mouse (CEREP, Ref: 806) microsomes. Inhibition of human drug-metabolizing cytochromes P450 was tested on the five most commonly responsible enzymes of metabolism of xenobiotics, CYP1A2 (CEREP, Ref 389), CYP2C9 (CEREP, Ref 412), CYP2C19 (CEREP, Ref 390), CYP2D6 (CEREP, Ref 1338) and CYP3A4 (CEREP, Ref 391).
Briefly, the standard conditions for CEREP's stability assays include incubation of test compound at 0.1 μM with human or mouse microsomes for 60 minutes in duplicate. The protein concentration of microsomes is 0.1 mg/mL. The parent compound is detected by HPLC-MS/MS analysis. The quantity of the parent compound that remains intact upon 60 minutes of microsome exposure (% remaining) is calculated by comparing the peak area of the parent compound at 60 minutes of exposure to the time zero.

O=C(O)CCc1c[nH]c2ccc(CC(=O)NC(c3ccccc3)c3ccccc3N3CCCCC3)cc12 (stereo not drawn) [Cpd. 1, 3-{5-[({phenyl[2-(piperidin-1-yl)phenyl]methyl}carbamoyl)methyl]-1H-indol-3-yl}propanoic acid]
IC50 (human RORγt): 1000 to 10000 nM
IC50 [1]: < 1000 nM
Human microsomes (% Cpd. remaining at 60 min) [2]: 54%

O=C(O)CCc1c[nH]c2ccc(CC(=O)NC(c3cccc(F)c3)c3ccccc3N3CCCCC3)cc12 (stereo not drawn) [Cpd. 3, 3-[5-({[(3-fluorophenyl)[2-(piperidin-1-yl)phenyl]methyl]carbamoyl}methyl)-1H-indol-3-yl]propanoic acid]
IC50 (human RORγt): 1000 to 10000 nM
IC50 [1]: < 1000 nM
Human microsomes (% Cpd. remaining at 60 min) [2]: 36%

Cc1ccc(C(NC(=O)Cc2ccc3[nH]cc(CCC(=O)O)c3c2)c2ccccc2)c(N2CCCC2)c1 (stereo not drawn) [Cpd. 5, 3-{5-[({[4-methyl-2-(pyrrolidin-1-yl)phenyl](phenyl)methyl}carbamoyl)methyl]-1H-indol-3-yl}propanoic acid]
IC50 (human RORγt): < 1000 nM
IC50 [1]: < 1000 nM
Human microsomes (% Cpd. remaining at 60 min) [2]: 89%

CC(C)CC(NC(=O)Cc1ccc2[nH]cc(CCC(=O)O)c2c1)c1ccccc1N1CCCCC1 (stereo not drawn) [Cpd. 29, 3-{5-[({3-methyl-1-[2-(piperidin-1-yl)phenyl]butyl}carbamoyl)methyl]-1H-indol-3-yl}propanoic acid]
IC50 (human RORγt): 1000 to 10000 nM
IC50 [1]: < 1000 nM
Human microsomes (% Cpd. remaining at 60 min) [2]: 23%

O=C(O)CCc1c[nH]c2ccc(CC(=O)NC(c3ccccc3)c3ccc(C(F)(F)F)cc3N3CCCC3)cc12 (stereo not drawn) [Cpd. 48, 3-{5-[({phenyl[2-(pyrrolidin-1-yl)-4-(trifluoromethyl)phenyl]methyl}carbamoyl)methyl]-1H-indol-3-yl}propanoic acid]
IC50 (human RORγt): 1000 to 10000 nM
IC50 [1]: < 1000 nM
Human microsomes (% Cpd. remaining at 60 min) [2]: 83%

O=C(O)CCc1c[nH]c2ccc(CC(=O)NC(c3ccccc3)c3ccc(Br)cc3N3CCCC3)cc12 (stereo not drawn) [Cpd. 50, 3-{5-[({[4-bromo-2-(pyrrolidin-1-yl)phenyl](phenyl)methyl}carbamoyl)methyl]-1H-indol-3-yl}propanoic acid]
IC50 (human RORγt): < 1000 nM
IC50 [1]: < 1000 nM
Human microsomes (% Cpd. remaining at 60 min) [2]: 92%

Cc1ccc(C(NC(=O)Cc2ccc3[nH]cc(CCC(=O)O)c3c2)c2ccccc2)c(N2CCCCC2)c1 (stereo not drawn) [Cpd. 77, 3-{5-[({[4-methyl-2-(piperidin-1-yl)phenyl](phenyl)methyl}carbamoyl)methyl]-1H-indol-3-yl}propanoic acid]
IC50 (human RORγt): < 1000 nM
IC50 [1]: < 1000 nM
Human microsomes (% Cpd. remaining at 60 min) [2]: 88%

COc1ccc(C(NC(=O)Cc2ccc3[nH]cc(CCC(=O)O)c3c2)c2ccccc2)c(N2CCCCC2)c1 (stereo not drawn) [Cpd. 111, 3-{5-[({[4-methoxy-2-(piperidin-1-yl)phenyl](phenyl)methyl}carbamoyl)methyl]-1H-indol-3-yl}propanoic acid]
IC50 (human RORγt): 1000 to 10000 nM
IC50 [1]: < 1000 nM
Human microsomes (% Cpd. remaining at 60 min) [2]: 88%

Cc1ccc(C(NC(=O)Cc2ccc3[nH]cc(CCC(=O)O)c3c2)c2ccccc2)c(N(C)C)c1 (stereo not drawn) [Cpd. 192, 3-{5-[({[2-(dimethylamino)-4-methylphenyl](phenyl)methyl}carbamoyl)methyl]-1H-indol-3-yl}propanoic acid]
IC50 (human RORγt): < 1000 nM
IC50 [1]: < 1000 nM
Human microsomes (% Cpd. remaining at 60 min) [2]: 79%

O=C(O)CCCc1c[nH]c2ccc(CC(=O)NC(c3ccccc3)c3ccccc3N3CCCCC3)cc12 (stereo not drawn) [Cpd. 212, 4-{5-[({phenyl[2-(piperidin-1-yl)phenyl]methyl}carbamoyl)methyl]-1H-indol-3-yl}butanoic acid]
IC50 (human RORγt): 1000 to 10000 nM
IC50 [1]: < 1000 nM
Human microsomes (% Cpd. remaining at 60 min) [2]: 26%
